Tests used:
Format in all cases: in vivo
[1] = test system: galium (catchweed bedstraw, Galium aparine); assay: Test A postemergence application, visual injury rating; conditions: approx. 10 d, 0 = no effect, 100 = complete control
Procedure, shortened: (§1)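 Rated visually against untreated controls after approx. 10 d in greenhouse, scale 0 = no effect, 100 = complete control. Seeded loam/sand blend given directed soil spray preemergence, or plants sprayed at one- to two-leaf stage, 2-10 cm tall; surfactant-containing non-phytotoxic solvent formulation.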

corn (Zea mays) = assay: as above; conditions: approx. 10 d, 0 = no effect, 100 = complete control
Procedure, shortened: as §1

[2] = test system: ragweed (common ragweed, Ambrosia elation); assay: as above; conditions: approx. 10 d, 0 = no effect, 100 = complete control
Procedure, shortened: as §1

[3] = test system: foxtail, giant (giant foxtail, Setaria faberii); assay: as above; conditions: approx. 10 d, 0 = no effect, 100 = complete control
Procedure, shortened: as §1

[4] = test system: pigweed (Amaranthus retroflexus); assay: as above; conditions: approx. 10 d, 0 = no effect, 100 = complete control
Procedure, shortened: as §1

[5] = test system: ryegrass, Italian (Italian ryegrass, Lolium multiflorum); assay: as above; conditions: approx. 10 d, 0 = no effect, 100 = complete control
Procedure, shortened: as §1

[6] = test system: blackgrass (Alopecurus myosuroides); assay: as above; conditions: approx. 10 d, 0 = no effect, 100 = complete control
Procedure, shortened: as §1

kochia (Kochia scoparia) [7] = assay: as above; conditions: approx. 10 d, 0 = no effect, 100 = complete control
Procedure, shortened: as §1

[8] = test system: wheat (Triticum aestivum); assay: as above; conditions: approx. 10 d, 0 = no effect, 100 = complete control
Procedure, shortened: as §1

[9] = test system: barnyardgrass (Echinochloa crus-galli); assay: as above; conditions: approx. 10 d, 0 = no effect, 100 = complete control
Procedure, shortened: as §1

rice (Oryza sativa) = assay: Test B flooded paddy test, visual plant response rating; conditions: 250 g ai/ha; applied to paddy water at 2-leaf stage; rated after 13 to 15 days; scale 0 to 100, 0 is no effect, 100 is complete control
Procedure, shortened: (§2)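 Pots flooded to 3 cm above soil at treatment; compound applied directly into paddy water, depth held throughout. Greenhouse for 13 to 15 days, then visual rating versus untreated controls on a 0–100 scale (0 no effect, 100 complete control); dash means no result.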

[10] = test system: sedge, umbrella (small-flower umbrella sedge, Cyperus difformis); assay: as above; conditions: 250 g ai/ha; applied to paddy water at 2-leaf stage; rated after 13 to 15 days; scale 0 to 100, 0 is no effect, 100 is complete control
Procedure, shortened: as §2

[11] = test system: ducksalad (Heteranthera limosa); assay: as above; conditions: 250 g ai/ha; applied to paddy water at 2-leaf stage; rated after 13 to 15 days; scale 0 to 100, 0 is no effect, 100 is complete control
Procedure, shortened: as §2

[12] = test system: barnyardgrass (Echinochloa crus-galli); assay: as above; conditions: 250 g ai/ha; applied to paddy water at 2-leaf stage; rated after 13 to 15 days; scale 0 to 100, 0 is no effect, 100 is complete control
Procedure, shortened: as §2

[13] = test system: ragweed (common ragweed, Ambrosia elation); assay: Test A preemergence, directed soil spray, visual injury rating; conditions: approx. 10 d, 0 = no effect, 100 = complete control
Procedure, shortened: as §1

[14] = test system: foxtail, giant (giant foxtail, Setaria faberii); assay: as above; conditions: approx. 10 d, 0 = no effect, 100 = complete control
Procedure, shortened: as §1

[15] = test system: pigweed (Amaranthus retroflexus); assay: as above; conditions: approx. 10 d, 0 = no effect, 100 = complete control
Procedure, shortened: as §1

[16] = test system: ryegrass, Italian (Italian ryegrass, Lolium multiflorum); assay: as above; conditions: approx. 10 d, 0 = no effect, 100 = complete control
Procedure, shortened: as §1

kochia (Kochia scoparia) [17] = assay: as above; conditions: approx. 10 d, 0 = no effect, 100 = complete control
Procedure, shortened: as §1

[18] = test system: barnyardgrass (Echinochloa crus-galli); assay: as above; conditions: approx. 10 d, 0 = no effect, 100 = complete control
Procedure, shortened: as §1

Row | SMILES | Galium plant response rating (0 to 100 scale) ([1]; 125 g ai/ha) | Galium plant response rating (0 to 100 scale) ([1]; 500 g ai/ha) | Corn plant response rating (0 to 100 scale) (corn (Zea mays); 125 g ai/ha) | Corn plant response rating (0 to 100 scale) (corn (Zea mays); 500 g ai/ha) | Ragweed plant response rating (0 to 100 scale) ([2]; 125 g ai/ha) | Ragweed plant response rating (0 to 100 scale) ([2]; 500 g ai/ha) | Foxtail, Giant plant response rating (0 to 100 scale) ([3]; 125 g ai/ha) | Foxtail, Giant plant response rating (0 to 100 scale) ([3]; 500 g ai/ha) | Pigweed plant response rating (0 to 100 scale) ([4]; 125 g ai/ha) | Pigweed plant response rating (0 to 100 scale) ([4]; 500 g ai/ha) | Ryegrass, Italian plant response rating (0 to 100 scale) ([5]; 125 g ai/ha) | Ryegrass, Italian plant response rating (0 to 100 scale) ([5]; 500 g ai/ha) | Blackgrass plant response rating (0 to 100 scale) ([6]; 125 g ai/ha) | Blackgrass plant response rating (0 to 100 scale) ([6]; 500 g ai/ha) | Kochia plant response rating (0 to 100 scale) (kochia (Kochia scoparia) [7]; 125 g ai/ha) | Kochia plant response rating (0 to 100 scale) (kochia (Kochia scoparia) [7]; 500 g ai/ha) | Wheat plant response rating (0 to 100 scale) ([8]; 125 g ai/ha) | Wheat plant response rating (0 to 100 scale) ([8]; 500 g ai/ha) | Barnyardgrass plant response rating (0 to 100 scale) ([9]; 125 g ai/ha) | Barnyardgrass plant response rating (0 to 100 scale) ([9]; 500 g ai/ha) | further results
1 | Cc1ccc(C2Cn3c(C)nnc3C2C(=O)Nc2cccc(F)c2C)cc1C (stereo not drawn) [Compound 10] | 0 | 50 | 20 | 40 | 0 | 20 | 30 | 80 | 0 | 0 | 0 | 30 | 0 | 70 | 0 | 30 | 30 | 30 | 50 | 90 | Plant response rating, Flood, Rice (rice (Oryza sativa)): 0; Plant response rating, Flood, Sedge, Umbrella [10]: 0; Plant response rating, Flood, Ducksalad [11]: 45; Plant response rating, Flood, Barnyardgrass [12]: 20; Ragweed plant response rating (0 to 100 scale) ([13]; 125 g ai/ha): 0; Ragweed plant response rating (0 to 100 scale) ([13]; 500 g ai/ha): 0; Foxtail, Giant plant response rating (0 to 100 scale) ([14]; 125 g ai/ha): 80; Foxtail, Giant plant response rating (0 to 100 scale) ([14]; 500 g ai/ha): 90; Pigweed plant response rating (0 to 100 scale) ([15]; 125 g ai/ha): 0; Pigweed plant response rating (0 to 100 scale) ([15]; 500 g ai/ha): 20; Ryegrass, Italian plant response rating (0 to 100 scale) ([16]; 125 g ai/ha): 0; Ryegrass, Italian plant response rating (0 to 100 scale) ([16]; 500 g ai/ha): 70; Kochia plant response rating (0 to 100 scale) (kochia (Kochia scoparia) [17]; 125 g ai/ha): 0; Kochia plant response rating (0 to 100 scale) (kochia (Kochia scoparia) [17]; 500 g ai/ha): 50; Barnyardgrass plant response rating (0 to 100 scale) ([18]; 125 g ai/ha): 50; Barnyardgrass plant response rating (0 to 100 scale) ([18]; 500 g ai/ha): 90
2 | CCc1ccc(C2Cn3cnnc3C2C(=O)Nc2cccc(F)c2F)cc1 (stereo not drawn) [Compound 11] | 20 | 50 | 0 | 30 | 0 | 30 | 40 | 70 | 0 | 0 | 0 | 50 | 0 | 20 | 40 | 50 | 0 | 20 | 70 | 80 | Plant response rating, Flood, Rice (rice (Oryza sativa)): 0; Plant response rating, Flood, Sedge, Umbrella [10]: 70; Plant response rating, Flood, Ducksalad [11]: 95; Plant response rating, Flood, Barnyardgrass [12]: 0; Ragweed plant response rating (0 to 100 scale) ([13]; 125 g ai/ha): 0; Ragweed plant response rating (0 to 100 scale) ([13]; 500 g ai/ha): 40; Foxtail, Giant plant response rating (0 to 100 scale) ([14]; 125 g ai/ha): 80; Foxtail, Giant plant response rating (0 to 100 scale) ([14]; 500 g ai/ha): 90; Pigweed plant response rating (0 to 100 scale) ([15]; 125 g ai/ha): 30; Pigweed plant response rating (0 to 100 scale) ([15]; 500 g ai/ha): 30; Ryegrass, Italian plant response rating (0 to 100 scale) ([16]; 125 g ai/ha): 0; Ryegrass, Italian plant response rating (0 to 100 scale) ([16]; 500 g ai/ha): 30; Kochia plant response rating (0 to 100 scale) (kochia (Kochia scoparia) [17]; 125 g ai/ha): 60; Kochia plant response rating (0 to 100 scale) (kochia (Kochia scoparia) [17]; 500 g ai/ha): 70; Barnyardgrass plant response rating (0 to 100 scale) ([18]; 125 g ai/ha): 70; Barnyardgrass plant response rating (0 to 100 scale) ([18]; 500 g ai/ha): 90
3 | O=C(Nc1cccc(F)c1F)C1c2nncn2CC1c1ccc(C(F)(F)F)cc1 (stereo not drawn) [Compound 12] | 30 | 70 | 0 | 60 | 0 | 50 | 30 | 90 | 0 | 70 | 0 | 60 | 0 | 60 | 20 | 60 | 0 | 40 | 30 | 90 | Plant response rating, Flood, Rice (rice (Oryza sativa)): 0; Plant response rating, Flood, Sedge, Umbrella [10]: 0; Plant response rating, Flood, Ducksalad [11]: 75; Plant response rating, Flood, Barnyardgrass [12]: 0; Ragweed plant response rating (0 to 100 scale) ([13]; 125 g ai/ha): 0; Ragweed plant response rating (0 to 100 scale) ([13]; 500 g ai/ha): 50; Foxtail, Giant plant response rating (0 to 100 scale) ([14]; 125 g ai/ha): 90; Foxtail, Giant plant response rating (0 to 100 scale) ([14]; 500 g ai/ha): 90; Pigweed plant response rating (0 to 100 scale) ([15]; 125 g ai/ha): 30; Pigweed plant response rating (0 to 100 scale) ([15]; 500 g ai/ha): 80; Ryegrass, Italian plant response rating (0 to 100 scale) ([16]; 125 g ai/ha): 40; Ryegrass, Italian plant response rating (0 to 100 scale) ([16]; 500 g ai/ha): 60; Kochia plant response rating (0 to 100 scale) (kochia (Kochia scoparia) [17]; 125 g ai/ha): 30; Kochia plant response rating (0 to 100 scale) (kochia (Kochia scoparia) [17]; 500 g ai/ha): 80; Barnyardgrass plant response rating (0 to 100 scale) ([18]; 125 g ai/ha): 20; Barnyardgrass plant response rating (0 to 100 scale) ([18]; 500 g ai/ha): 80

Reference: patent publication US10442807B2, “Aryl substituted bicyclic compounds as herbicides” (FMC Corporation, priority 2015, dated 2019)
